The source of these data is US20170152241A9, “BICYCLIC DERIVATIVE CONTAINING PYRIMIDINE RING, AND PREPARATION METHOD THEREFOR” (YUHAN CORPORATION, priority 2013, published 2017).

Broadly, the EC50 is the concentration at which the effect is half-maximal. A high value points to lower potency in that assay.

Counter-ions that a name gives are not always drawn.

In the test the target is T1, human 5-HT4(a) (Homo sapiens, UniProt Q13639).
T1 construct: host or cells: GeneBlAzer HTR4-CRE-bla CHO-K1 cells
T1 sequence (Q13639 1-387 isoform Q13639-2): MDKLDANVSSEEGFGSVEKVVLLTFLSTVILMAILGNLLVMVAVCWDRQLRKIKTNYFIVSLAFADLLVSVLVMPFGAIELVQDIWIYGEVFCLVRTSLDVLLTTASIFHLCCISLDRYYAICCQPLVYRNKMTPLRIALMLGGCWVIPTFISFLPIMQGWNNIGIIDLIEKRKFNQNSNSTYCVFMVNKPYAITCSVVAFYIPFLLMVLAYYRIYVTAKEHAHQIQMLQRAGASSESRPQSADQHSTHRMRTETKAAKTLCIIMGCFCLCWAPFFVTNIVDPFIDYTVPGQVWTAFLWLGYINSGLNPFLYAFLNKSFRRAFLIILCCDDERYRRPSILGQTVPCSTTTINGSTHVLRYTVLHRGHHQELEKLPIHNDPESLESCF
The test can be described thus: Evaluation of agonistic activity in CHO-K1 cells expressing human 5-HT4(a) (GeneBlAzer HTR4-CRE-bla, beta-lactamase reporter). Format: cell-based. The following applies: 5 hours incubation, 8 concentrations. As for the experimental part:
Evaluation of Agonistic Activity in CHO-K1 Cells Expressing Human 5-HT4(a)
As CHO-K1 cells stably expressing human 5-HT4(a), we used the GeneBlAzer HTR4-CRE-bla CHO-K1 cells (Invitrogen corp.). The cells were cultured in DMEM medium supplemented with 10% bovine fetal serum (FBS), 25 mM HEPES (pH 7.4), 600 μg/ml Hygromycin B, 0.1 mM non-essential amino acids, 100 unit/ml penicillin and 100 μg/ml streptomycin under the condition of 37° C. and 5% CO2. Subcultures were performed three times per a week, each being at less than 80% confluence. At the previous day before treating test compounds, the cells were collected by using 0.5% trypsin/EDTA, and then diluted with a DMEM supplemented with 1% FBS, 25 mM HEPES and 0.1 mM non-essential amino acids into 3.125×10^5 cells/ml. 32 μl of the diluted cells were added into 384-well plate (10,000 cells/well) and then incubated overnight. The compounds to be used as a test material and a control drug were prepared as 500× of the various final treating concentrations of the drug with 100% DMSO, and then treated to the medium after diluting them to 100-folds to be 1% of the final DMSO concentration equally. After culturing overnight, 8 μl of the medium having 1% of DMSO was added into the cell-free control well and the non-stimulating control well, respectively. 8 μl of the control drug or the test material (which had been prepared by diluting 100-folds with the medium as mentioned in the above) having 1% of DMSO, were added to the respective remaining wells. After culturing in an incubator for 5 hours, the wells of the 384-plate were treated with the substrate solution (8 μl/well) prepared according to the vendor's instruction (i.e. Invitrogen's instruction), and then incubated in the dark room for additional 2 hours. Agonistic activities on 5-HT4 receptor were evaluated, on the basis of fluorescent values of the cleavage-products, which is generated cAMP-concentration dependently per equal time by beta-lactamase. After exciting to 410 nm of wavelength by using Genios Pro Fluorescence Detector, we measured the fluorescence values at two emission wavelengths (first wavelength: 465 nm, second wavelength: 535 nm). Data were analyzed on the basis of the ratio of fluorescence intensities of each well at the respective wavelengths. For all plates, the concentrations-response curve (1 pM-100 nM) of the control drug (Tegaserod) was included. Each EC50 values of the test compounds were calculated by non-linear regression analysis using GraphPad Prism program, based on the concentration-reactivity values according to 8-different concentrations of the test compounds.
Consider `CC(=O)N[C@@H]1CCCN(c2nc(Nc3ccc(N)c([N+](=O)[O-])c3)nc3c2CCC3)C1` [Example 198, (R)—N-(1-[2-{(4-amino-3-nitrophenyl)amino}-6,7-dihydro-5H-cyclopenta[d]pyrimidin-4-yl]piperidin-3-yl}acetamide hydrochloride], for which the response was half-maximal at 10 pM (EC50).
In the case of `N#Cc1cc(N)cc(Nc2nc3c(c(N4CCC[C@@H](N)C4)n2)CCC3)c1` [Example 199, (R)-3-amino-5-[{4-(3-aminopiperidin-1-yl)-6,7-dihydro-5H-cyclopenta[d]pyrimidin-2-yl}amino]benzonitrile dihydrochloride] it was 20 pM; in that of `CN[C@@H]1CCCN(c2nc(Nc3cc(N)cc(C#N)c3)nc3c2CCC3)C1` [Example 204, (R)-3-amino-5-([4-{3-(methylamino)piperidin-1-yl}-6,7-dihydro-5H-cyclopenta[d]pyrimidin-2-yl]amino)benzonitrile dihydrochloride], 10 pM; in that of `CN[C@@H]1CCCN(c2nc(Nc3cc(N)cc(C(F)(F)F)c3)nc3c2CCCC3)C1` [Example 213, (R)—N^1-[4-{3-(methylamino)piperidin-1-yl}-5,6,7,8-tetrahydroquinazolin-2-yl]-5-(trifluoromethyl)benzene-1,3-diamine dihydrochloride], 16 pM.
In the case of `CNC(=O)[C@@H]1CCCN(c2nc(Nc3ccc(N)c([N+](=O)[O-])c3)nc3c2CCC3)C1` [Example 224, (R)-1-[2-{(4-amino-3-nitrophenyl)amino}-6,7-dihydro-5H-cyclopenta[d]pyrimidin-4-yl]-N-methylpiperidine-3-carboxamide hydrochloride] it was 8.7 pM.
